Measurements as given in article PMC10675073, “Effect of Phenolics from Aeonium arboreum on Alpha Glucosidase, Pancreatic Lipase, and Oxidative Stress; a Bio-Guided Approach” (Pharmaceutics, 2023).

How the values were obtained:
[1] = Oxygen radical absorbance capacity (ORAC) assay; details: Table S6; per mM compound
Protocol: Trolox (positive control) was prepared at 2 mM in MeOH then serially diluted into ten concentrations 1000, 800, 700, 600, 500, 400, 300, 200, 100, and 50 μM for the concentration–response curve construction. The total extract and DCM fractions were made at 0.2 mg/mL in methanol, 100% and 50% were prepared at 0.05 mg/mL in methanol, while quercetin rhamnoside was prepared at a concentration of 0.225 mM in methanol. The assay was carried out using Liang et al.’s (2014) methodology, with minor modifications. In brief, 10 μL of the prepared samples were allowed to sit at 37 °C for 10 min with […] of fluoresceine (100 nM). For the background measurement, fluorescence measurements (485 EX, 520 EM, nm) were carried out three times for a total of 90 s each (range 1, Figure 1). Then, 70 μL of freshly made 2,2′-Azobis (2-amidinopropane) dihydrochloride (AAPH) (300 mM) was added to each well. For 60 min (40 cycles, each lasting 90 sec), the measurement of fluorescence (485 EX, 520 EM, nm) was maintained. The antioxidant impact of the samples was determined as the μM Trolox equivalent using the linear regression equation, and the data are shown as means (n = 3) SD.

[2] = target: T1, Saccharomyces cerevisiae α-glucosidase (Saccharomyces cerevisiae, UniProt P53341); experiment: α-glucosidase enzyme inhibition (pNPG, colorimetric); assay type: biochemical; details: pure compounds, read-out: IC50 (Mean ± SE)
T1 construct: purchased Sigma-Aldrich G5003-100UN
T1 sequence (P53341 whole entry): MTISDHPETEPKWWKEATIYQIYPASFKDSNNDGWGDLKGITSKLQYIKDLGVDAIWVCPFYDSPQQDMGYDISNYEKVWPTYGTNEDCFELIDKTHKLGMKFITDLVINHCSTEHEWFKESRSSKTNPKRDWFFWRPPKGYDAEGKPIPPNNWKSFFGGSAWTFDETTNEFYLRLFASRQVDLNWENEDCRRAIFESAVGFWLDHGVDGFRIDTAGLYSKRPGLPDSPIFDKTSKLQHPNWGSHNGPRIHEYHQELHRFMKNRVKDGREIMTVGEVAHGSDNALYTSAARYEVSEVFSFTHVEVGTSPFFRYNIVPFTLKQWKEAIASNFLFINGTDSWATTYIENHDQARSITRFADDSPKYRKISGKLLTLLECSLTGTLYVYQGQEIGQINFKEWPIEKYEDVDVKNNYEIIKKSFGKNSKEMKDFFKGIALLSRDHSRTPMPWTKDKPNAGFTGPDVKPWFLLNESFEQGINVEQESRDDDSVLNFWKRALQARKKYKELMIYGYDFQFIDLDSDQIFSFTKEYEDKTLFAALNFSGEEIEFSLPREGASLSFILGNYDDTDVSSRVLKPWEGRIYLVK
Protocol: Saccharomyces cerevisiae’s α-glucosidase was utilized (Sigma-Aldrich, St. Louis, MO, USA Cat#G5003-100UN). […] Seven concentrations, comprising 31.25, 62.5, 125, 250, 500, 750, and 1000 µM, were prepared from the buffer. […] Using p-nitrophenyl-D-glucopyranoside (pNPG) as a substrate, the inhibitory activity of α-Glucosidase was evaluated colorimetrically by applying the technique described by Gutiérrez-Grijalva et al. with minor modification. In 96-microwell plates, 25 μL of samples/blank were combined with 50 μL of S. cerevisiae α-glucosidase (0.6 U/mL) in phosphate buffer (0.1 M, pH 7) for 10 min at 37 °C. The mixture was then incubated once again for 5 min at 37 °C after the addition of 25 μL of 3 mM pNPG as a substrate in phosphate buffer (pH 7). Utilizing a microplate reader (Tecan, Männedorf, Switzerland) to measure the release of p-nitrophenol from the pNPG substrate at 405 nm, enzyme activity was ascertained [23]. After determining the absorbance (A), the inhibition % of -glucosidase was determined using the formula:% Inhibition = [(A blank − A sample)/A blank] × 100

[3] = Metal chelation assay (Ferrozine)
Protocol: Except for quercetin rhamnoside, all the samples were prepared at a concentration of 0.2 mg/mL in methanol. A stock solution of EDTA (positive control) was made at a concentration of 0.1 mM in water and serially diluted into seven concentrations (80, 70, 60, 50, 40, 20, and 10 μM) for the purpose of creating a concentration–response curve. The method described in [28] was used for the Ferrozine iron metal chelation test, with a few minor adjustments made for microplates. In brief, 50 μL of the sample or substance on a 96-well plate and 50 μL of acetate buffer pH = 6 (n = 6) were combined with 20 μL of newly produced ferrous sulphate (0.3 mM in acetate buffer pH = 6). Then, each well received 30 μL of Ferrozine (0.8 mM in acetate buffer, pH = 6). For 10 min, the reaction mixture was incubated at room temperature. At the completion of the incubation period, the FluoStar Omega microplate reader was used to measure the reduction in the intensity of the produced color. The following equation describes how data are expressed as means ± SD:% Inhibition = [(Average Absorbance of blank − Average Absorbance of Test)/Average Absorbance of blank] × 100
The samples’ antioxidant potential was calculated as μM EDTA equivalents using the linear regression equation.

ABTS assay = details: for % inhibition: standard curve (Figure S11)
Protocol: In brief, the production of the ABTS radical cation (ABTS•+) involved mixing 5 mL of ABTS aqueous solution (7 mM) with […] of potassium persulfate (140 mM) while the mixture was left at room temperature for 16 h in the dark. […] The absorbance was then measured at 690 nm using a microplate reader (Tecan, USA). According to the following equation, data are shown as means (n = 3) SD:% Inhibition = [(A blank - A sample)/A blank] × 100 Using the linear regression method, the antioxidant effect of the various samples was determined as μM ascorbic acid equivalent.

[4] = Ferric reducing antioxidant power (FRAP) assay
Protocol: The samples were made in a mixture of methanol: DMSO (10:1) at a concentration of 2 mg/mL, while quercetin rhamnoside was made at a concentration of 0.9 mM. To produce the concentration–response curve, seven concentrations, including 7.812, 15.625, 31.25, 62.5, 125, 250, and 500 µM, were created from a stock solution of 1000 µM concentration of ascorbic acid, the positive control. According to the procedure of Benzie et al., this assay was conducted with minor modifications. It depends on Fe^3+ reduction into Fe^2+ which forms a colored complex with 2,4,6-tris (2-pyridyl)-s-[…] (TPTZ). In brief, in a 96-well plate (n = 3), […] of the sample was combined with […] of freshly made TPTZ reagent (300 mM acetate buffer (pH = 3.6), 10 mM TPTZ in 40 mM HCl, and 20 mM FeCl3, in that order; respectively). The reaction was then allowed to run at room temperature for 30 min while kept in a dark place, and the absorbance was measured at 593 nm. Data are shown as means ± SD [26]. […]

[5] = target: T2, porcine pancreatic lipase (PPL) (Sus scrofa, UniProt P00591); experiment: Pancreatic lipase enzyme inhibition (p-NPD); assay type: biochemical
T2 sequence (P00591 1-450): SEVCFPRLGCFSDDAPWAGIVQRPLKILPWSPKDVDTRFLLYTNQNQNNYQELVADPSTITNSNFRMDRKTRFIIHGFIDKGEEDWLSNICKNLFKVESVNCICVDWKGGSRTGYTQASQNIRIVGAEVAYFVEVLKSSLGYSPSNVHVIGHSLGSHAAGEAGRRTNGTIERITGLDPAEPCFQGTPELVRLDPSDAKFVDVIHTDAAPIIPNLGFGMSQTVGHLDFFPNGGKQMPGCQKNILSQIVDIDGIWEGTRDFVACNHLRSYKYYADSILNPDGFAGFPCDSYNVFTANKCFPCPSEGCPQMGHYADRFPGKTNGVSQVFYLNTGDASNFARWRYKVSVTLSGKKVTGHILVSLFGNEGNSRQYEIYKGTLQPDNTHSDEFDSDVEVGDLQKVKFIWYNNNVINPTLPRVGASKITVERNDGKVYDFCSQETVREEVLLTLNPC
Protocol: P-nitrophenyl dodecanoate (p-NPD from Sigma Aldrich, St. Louis, MO, USA) was used as the substrate, and porcine pancreatic lipase (PPL) was prepared as previously stated by with minor modification. In sum, 25 μL of prepared samples along with a blank were first incubated with 50 µL of PPL (1 mg/mL) in a Tris-HCl buffer (100 mM, pH 8) for 10 min prior to detecting the PPL activity. Following the addition of […] of p-NPD (10 mM in isopropanol), the reaction was then incubated again at 37 °C for 20 min. using […] of Tris-HCl buffer as a volume diluent.

Compound | Antioxidant activity using ORAC assay [1] [µMT eq/mM] | IC50 [2] [µM] | EDTA equivalent per mM sample ([3]; Table S7) [µM eq/ mM sample] | Metal chelation activity, EDTA equivalent ([3]; per mM compound) [μmolar EDTAE/mM] | ABTS antioxidant activity, ascorbic acid equivalent (ABTS assay; per mM compound) [μM AAE/mM] | Trolox equivalent per mM sample ([4]; Table S5, FRAP) [µM TE/mM sample] | FRAP antioxidant activity, Trolox equivalent ([4]; per mM compound) [μmolar TE/mM] | inhibition at 500 µM ([5]; 500 µM, read-out: % Inhibition (Mean ± SD)) [%] | IC50 ([5]; pure compounds, read-out: IC50 (µM) (Mean ± SE)) | % inhibition (ABTS assay; 7.8125 µM) [%] | % inhibition (ABTS assay; 15.625 µM) [%] | % inhibition (ABTS assay; 31.25 µM) [%] | % inhibition (ABTS assay; 62.5 µM) [%] | % inhibition (ABTS assay; 125 µM) [%] | % inhibition (ABTS assay; 250 µM) [%] | % inhibition (ABTS assay; 500 µM) [%]
CC1OC(Oc2c(-c3ccc(O)c(O)c3)oc3cc(O)cc(O)c3c2=O)C(O)C(O)C1O (stereo not drawn) [Quercetin-3-rhamnoside, quercetin-3-O-α-rhamnoside] | 25258.39 | 126.4 ± 1.04 | 377.98 | 377.98 ± 10.17 | 1338.1 ± 81.38 | 1681.23 | 1681.2 ± 49.9 | 19.1 ± 0.34 | > 500 |  |  |  |  |  |  | 
O=C1O[C@H]([C@@H](O)CO)C(O)=C1O [ascorbic acid] |  |  |  |  |  |  |  |  |  | 2.8930 | 3.7803 | 5.5156 | 9.7291 | 16.88 | 33.5451 | 62.86
